Data from patent US11834698B2, “Process for determining enzyme activity in a cell by activity-based reporter gene technology (ABRGT)” (INDIAN INSTITUTE OF SCIENCE EDUCATION AND RESEARCH, priority 2018, dated 2023).

What was measured:
cathepsin B GFPspark = molecular target: T1, cathepsin B GFPspark (Homo sapiens, UniProt P07858); assay: AbRGT FRET imaging / acceptor photobleaching, cathepsin B GFPspark in HEK-293 cells; assay type: cell-based; settings: HEK-293, inhibitor 50 μM 1 h before probe 1 labelling, STS 4 h
T1 construct: GFPspark (C); host or cells: HEK-293
Method: FIG. 20 depicts confocal images of HEK-293 cells in GFP, FRET and Rh channel Cathepsin B GFPspark transfected HEK-293 cells were treated with STS (1 μM) for 4 h and labelled (a) (i) with or (a) (iv) without probe 1. Cells were pre-treated with (a) (ii) Z-VAD-FMK (50 μM) or (a) (iii) E-64 (50 μM) inhibitor 1 h before the probe 1 labelling. (b) Quantification of the change in GFPS fluorescence intensity after rhodamine photobleaching in both unbleached control region and rhodamine bleached region (ROI), using acceptor photo-bleaching method. Error bar represents the s.e.m for n=10 cells (*P<0.00001). Scale bar, 10 μm. a.u., arbitrary units.
(§1) Plasmids and transient transfection: GFPspark tagged plasmids; caspase-3 GFPspark tag (Cat: HG10050-ACG), caspase-7 GFPspark tag (HG10049-ACG), caspase-8 GFPspark (HG10078-ACG), caspase-9 GFPspark (HG11151-ACG) and cathepsin B GFPspark (HG10483-ACG) were procured from Sino Biological. For transfection, cells were seeded in a 6-well plate at a density of 0.4 million cells/well. At 60-70% confluency, cells were transiently transfected for 24 h at 37° C. with 1 μg of the GFPspark tagged plasmid DNA construct mixed with 5 μL of Lipofectamine 2000 (Invitrogen) according to the manufacturer's instructions. 24 h post-transfection, cells were visualized under the GFP filter for GFPspark expression under fluorescence microscope at 10× magnification.
(§2) Labelling of active caspases in apoptotic cells with FABP: After 24 h of transfection, cells were treated with STS (1 μM) drug or TRAIL (1 μg/ml) for apoptotic induction and incubated for 2, 4, 6 and 8 h at 37° C. in a humidified atmosphere of 5% CO2/95% air. Cells were gently scraped off from the surface at the end of apoptotic induction and centrifuged at 3000 rpm for 5 min. The cell pellet was resuspended in 300 μL of fresh DMEM containing 1 μM of probe for probe 2 and incubated for additional 2 h at 37° C. in a humidified atmosphere of 5% CO2. Cells were again centrifuged at 3000 rpm for 5 mins, and the supernatant was decanted. Cells were washed with 1×PBS, thrice finally resuspended in 20 μL of 1×PBS. The cell suspension was put on a slide, and a coverslip was placed over it. It was left for air drying. Slides were then imaged for GFP, FRET and rhodamine fluorescence signals under confocal microscopy.
Inhibitor assay: Cells were pre-treated with 50 μM of Z-VAD-FMK or Q-VD-OPh or E-64 inhibitor 1 h before probe 1 labelling and incubated for 1 h at 37° C. in a humidified atmosphere of 5% CO2. Cells were gently scraped off from the surface at the end of inhibitor treatment and centrifuged at 3000 rpm for 5 min Cells were then labelled with the probe 1 as described in the previous section.
Fluorescence imaging studies, FRET procedure: Images were collected on Zeiss LSM710 confocal microscope with 25 mW argon laser using Zen10 software. The laser was tuned to lines at 488 nm (excitation laser for GFPspark) and 561 nm (excitation laser for rhodamine) Cells were examined with a 40× 1.3 NA Zeiss oil immersion objective and 2.4× zoom. Images were collected in the three channels; GFP channel, argon laser tuned at 488 nm with 2% laser intensity and fluorescence emission was collected in emission range of 490-550 nm; rhodamine channel, argon laser tuned to 561 nm laser with 2% laser intensity and fluorescence emission was collected in range 550-650 nm and FRET channel with excitation laser of GFPSPARK channel and emission range of rhodamine channel. […]

caspase-3/7 = assay: Substrate-based reporter assay, CFP-DEVDR-YFP cleavage, live cell FRET
Method: FIGS. 8A and 8B depict the time course of cleavage for CFP-DEVDR-YFP plasmid. Time is relative to the first frame taken after 8 h of STS treatment. […] The percentage rise in the CFP/YFP intensity ratio was 47%. Rise in CFP/YFP intensity ratio is an indirect measure of caspase-3/7 activation.
To rule out that the obtained FRET signal in [FIG. 2b (i)] is not because of random physical interaction between GFPspark and rhodamine dye, MCF-7 cells were transfected with a plasmid encoding for enhanced green fluorescent protein (EGFP). EGFP transfected MCF-7 cells were treated with STS (1 μM) for 4 h, labelled with the probe 1. […] In-gel fluorescence assay was also performed to validate the multiple off-targets labelling of probe 1 which has also been shown in the previous reports. […] The calculated FRET efficiency for (n=15 cells) is 35±1%. […] Caspase-3 activation was also monitored using probe 2 as fABP which is different from probe 1 in terms of peptide recognition sequence; DEVD in exchange for VAD as DEVD peptide sequence is more specific for caspases as compared to VAD. Probe 2 yielded a similar pattern of fluorescence signal in GFPspark, FRET and Rh channel as that of probe 1 [FIG. 7(a)]. The calculated FRET efficiency was 35% [FIG. 7(b)]. […] Acceptor photo-bleaching method was done to confirm the FRET signal, and the calculated FRET efficiency was 32±2% [FIG. 10 (a & b)].

[1] = test system: cleaved caspase-3 p17 fragment; assay: Western blot of cleaved caspase-3 p17 fragment in HeLa cells; assay type: cell-based; settings: STS 1 μM, after 12 h, 18 and 24 h
Method: FIG. 9 depicts a western blot analysis of cleaved caspase-3 p17 fragment after 18 and 24 h of STS (1 μM) treatment in HeLa cells. Lysate loading was done in triplicates. Double headed arrow representing 3 lanes with the same sample.
To rule out that the obtained FRET signal in [FIG. 2b (i)] is not because of random physical interaction between GFPspark and rhodamine dye, MCF-7 cells were transfected with a plasmid encoding for enhanced green fluorescent protein (EGFP). EGFP transfected MCF-7 cells were treated with STS (1 μM) for 4 h, labelled with the probe 1. […] In-gel fluorescence assay was also performed to validate the multiple off-targets labelling of probe 1 which has also been shown in the previous reports. […] The calculated FRET efficiency for (n=15 cells) is 35±1%. […] Caspase-3 activation was also monitored using probe 2 as fABP which is different from probe 1 in terms of peptide recognition sequence; DEVD in exchange for VAD as DEVD peptide sequence is more specific for caspases as compared to VAD. Probe 2 yielded a similar pattern of fluorescence signal in GFPspark, FRET and Rh channel as that of probe 1 [FIG. 7(a)]. The calculated FRET efficiency was 35% [FIG. 7(b)]. […] To confirm the reported results, the cleaved caspase-3 p17 fragment in immunoblotting was also detected by using active caspase-3 p17 antibody after […] of STS (1 μM) treatment [FIG. 9]. […]

caspase-3 GFPspark = molecular target: T2, caspase-3 GFPspark (Homo sapiens, UniProt P42574); assay: AbRGT FRET imaging / acceptor photobleaching, caspase-3 GFPspark in MCF-7 cells; assay type: cell-based; design: host or cells: MCF-7, HeLa, HEK-293; settings: MCF-7, STS 1 μM 4 h
T2 sequence (P42574 29-175 limits assumed): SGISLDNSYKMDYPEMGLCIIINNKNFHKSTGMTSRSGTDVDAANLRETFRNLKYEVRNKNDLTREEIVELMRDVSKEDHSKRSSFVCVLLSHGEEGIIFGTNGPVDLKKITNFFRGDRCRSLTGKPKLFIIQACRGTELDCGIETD
T2 sequence (P42574 176-277 limits assumed): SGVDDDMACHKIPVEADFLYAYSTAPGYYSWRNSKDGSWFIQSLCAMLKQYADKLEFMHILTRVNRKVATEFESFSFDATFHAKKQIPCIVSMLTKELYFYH
Method: FIG. 2 depicts (a) a schematic representation of AbRGT in determining the specific activation of caspase-3 GFPspark tagged enzyme by FRET effect utilizing Rh-VAD-FMK (probe 1). (b) The fluorescence signal was collected in GFP, FRET and Rhodamine (Rh) channels. MCF-7 cells transfected with caspase-3 GFPspark treated with (i) 1 μM STS for 4 h or (ii) 1 μg/ml TRAIL for 5 h and then labelled with probe 1. (iii) Un-transfected MCF-7 cells were treated with 1 μM STS for 4 h and then labelled with the probe 1. MCF-7 cells transfected with enhanced green fluorescent protein (EGFP) plasmid treated (iv) with 1 μM STS or (v) without STS for 4 h and then labelled with probe 1, scale bar, […]. (c) FRET validation between GFPspark and rhodamine fluorophore using the acceptor photobleaching method. Images for GFP and rhodamine fluorescence signals were collected in GFP and FRET channels pre- and post-bleaching of rhodamine signals. (d) Quantification of change in GFP fluorescence intensity after rhodamine photo-bleaching in both unbleached control region and rhodamine bleached region, region of interest (ROI), area under the white square. Error bar represents the s.e.m for n=15 cells (*P<0.00001). Scale bar, 10 μm. a.u., arbitrary units.
FIGS. 6A and 6B depict time dependent activation of caspase-3 GFPspark in MCF-7 cells upon STS (1 μM) induction. MCF-7 cells transfected with 2 μg of caspase-3 GFPspark plasmid and treated with 1 μM of STS for 2, 6, and 8 h. Cells were then labelled with the probe 1 for an additional 2 h. […] FRET validation between GFPspark and rhodamine fluorophore using the acceptor photobleaching method for the MCF-7 cells with STS induction for 2, 6 and 8 h. I=intensity (a.u.), arbitrary units. The calculated FRET efficiency for 2, 6 and 8 h are 38, 43, and 36% respectively.
FIGS. 7A and 7B depict applying AbRGT for specific detection of active caspase-3 GFPspark using the Rh-DEVD-FMK (probe 2). Caspase-3 GFPspark (2 μg) overexpressing MCF-7 cells were treated with 1 μM of STS for 4 h and labelled with the probe 2 (1 μM). […] The rise in GFPspark intensity after rhodamine photobleaching in the background is insignificant as compared to the ROI, i.e., 68 a.u., with a calculated FRET efficiency of 35%.
FIG. 12 depicts confocal images of MCF-7 cells in GFP, FRET and Rh channel. Caspase-3 GFPspark transfected MCF-7 cells were treated with STS for 4 h and labelled (a) with or (b) without probe 1. Cells were pre-treated with (c) Z-VAD-FMK (50 μM) and (d) Q-VD-OPh (50 μM) pan-caspase inhibitors 3 h before the probe labelling.
as §1
as §2, with “Cells were washed with 1×PBS, thrice finally resuspended in 20 μL of 1×PBS. The cell suspension was put on a slide, and a coverslip was placed over it. It was left for air drying. Slides were then imaged for GFP, FRET and rhodamine fluorescence signals under confocal microscopy.” left out

Molecule: CC(C)C[C@H](NC(=O)[C@H]1O[C@@H]1C(=O)O)C(=O)NCCCCN=C(N)N [E-64]
- effect of inhibitor on FRET signal (cathepsin B GFPspark): abolished
- signal in Rh channel in presence of inhibitor (cathepsin B GFPspark): sharp, intense punctate labelling was observed

Molecule: CN[C@@H]1C[C@H]2O[C@@](C)([C@@H]1OC)n1c3ccccc3c3c4c(c5c6ccccc6n2c5c31)C(=O)NC4 [STS, staurosporine]
- percentage rise in the CFP/YFP intensity ratio (caspase-3/7; CFP-DEVDR-YFP plasmid, from 8 h of STS treatment): 47%
- time of caspase-3/7 activation after treatment (caspase-3/7; STS 1 μM, live cell imaging): 10 to 12 h
- cleaved caspase-3 p17 fragment in immunoblotting [1]: detected

Molecule: Rh-DEVD-FMK [probe 2]
- rise in GFP intensity after rhodamine photobleaching in ROI (caspase-3 GFPspark; probe 1 μM): 68 a.u.
- calculated FRET efficiency (caspase-3 GFPspark; probe 1 μM 2 h, acceptor photobleaching): 35%
